Each structure is given as a SMILES string.

For this test, the target named is human c-MER catalytic domain (Homo sapiens (Human), UniProt Q12866). The experiment in a line: TR-FRET Kinase Activity Biochemical Assay (LanthaScreen). The following applies: 10 uM ATP, 1 hour, kinase not given. Put shortly: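 Activity was quantified as the ratio of 495 nm to 520 nm emission (excitation 340 nm) in a LanthaScreen TR-FRET format. The enzyme was the human c-MER catalytic domain, and the substrate was fluorescein-poly-GT. Detection used 2 nM Tb anti-phosphotyrosine antibody for 30 min after termination with 10 mM EDTA.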
Chain of human c-MER catalytic domain (Q12866 587-858): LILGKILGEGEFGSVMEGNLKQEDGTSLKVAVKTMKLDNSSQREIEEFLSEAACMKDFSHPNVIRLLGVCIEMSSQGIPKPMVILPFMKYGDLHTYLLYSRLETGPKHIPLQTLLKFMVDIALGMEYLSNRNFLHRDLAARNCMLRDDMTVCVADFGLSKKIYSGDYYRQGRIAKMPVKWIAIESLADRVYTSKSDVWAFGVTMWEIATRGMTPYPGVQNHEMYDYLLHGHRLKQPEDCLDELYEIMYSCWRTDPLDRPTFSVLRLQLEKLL
(In TR-FRET formats the signal depends on donor and acceptor labels being close together.)
For `Cn1cc(-c2cnc(N)c(C(=O)N[C@@H]3CCN(C(=O)c4ccc(-c5cnn(C6CCN(C(=O)OC(C)(C)C)CC6)c5)cc4)C3)c2)cn1` [Example 511, tert-butyl (R)-4-(4-(4-(3-(2-amino-5-(1-methyl-1H-pyrazol-4-yl)nicotinamido)pyrrolidine-1-carbonyl)phenyl)-1H-pyrazol-1-yl)piperidine-1-carboxylate], the 50% inhibitory concentration (IC50) (as a rule, the midpoint of a concentration-inhibition curve) lay in the range of 100 to 1000 nM.

`Cn1cc(-c2cnc(N)c(C(=O)N[C@@H]3CCN(C(=O)c4cccc(C5=CCCCC5)c4)C3)c2)cn1` [Example 475, (R)-2-amino-5-(1-methyl-1H-pyrazol-4-yl)-N-(1-(2′,3′,4′,5′-tetrahydro-[1,1′-biphenyl]-3-carbonyl)pyrrolidin-3-yl)nicotinamide] displayed an IC50 greater than 1000 nM.

The compound `Cn1cc(-c2cnc(N)c(C(=O)N[C@@H]3CCN(C(=O)Nc4ccccc4)C3)c2)cn1` [Example 1, (R)-2-amino-5-(1-methyl-1H-pyrazol-4-yl)-N-(1-(phenylcarbamoyl)pyrrolidin-3-yl)nicotinamide] displayed an IC50 of 100 to 1000 nM.

`Cn1cc(-c2cnc(N)c(C(=O)N[C@@H]3CCN(C(=O)c4cccc(-c5cnn(S(=O)(=O)c6ccccc6)c5)c4)C3)c2)cn1` [Example 717, (R)-2-amino-5-(1-methyl-1H-pyrazol-4-yl)-N-(1-(3-(1-(phenylsulfonyl)-1H-pyrazol-4-yl)benzoyl)pyrrolidin-3-yl)nicotinamide] yielded an IC50 greater than 1000 nM.

On to `Cn1cc(-c2cnc(N)c(C(=O)N[C@@H]3CCN(C(=O)Oc4cccc(-c5ccc(CN6CC[C@H](N)C6)cc5)c4)C3)c2)cn1` [Example 331, 4′-(((S)-3-aminopyrrolidin-1-yl)methyl)-[1,1′-biphenyl]-3-yl (R)-3-(2-amino-5-(1-methyl-1H-pyrazol-4-yl)nicotinamido)pyrrolidine-1-carboxylate], for which the IC50 lay within 10 to 100 nM.

As to `Cn1cc(-c2cnc(N)c(C(=O)N[C@@H]3CCN(C(=O)c4ccc(C5=CCCCC5)cc4)C3)c2)cn1` [Example 494, (R)-2-amino-5-(1-methyl-1H-pyrazol-4-yl)-N-(1-(2′,3′,4′,5′-tetrahydro-[1,1′-biphenyl]-4-carbonyl)pyrrolidin-3-yl)nicotinamide], the IC50 lay in the range of 10 to 100 nM.

Compound `CCSc1ccc(-c2ccc(C(=O)N3CC[C@@H](NC(=O)c4cc(-c5cnn(C)c5)cnc4N)C3)cc2)cc1` [Example 666, (R)-2-amino-N-(1-(4′-(ethylthio)-[1,1′-biphenyl]-4-carbonyl)pyrrolidin-3-yl)-5-(1-methyl-1H-pyrazol-4-yl)nicotinamide] returned a half-maximal inhibitory concentration (IC50) of 100 to 1000 nM.

`Cn1cc(-c2cnc(N)c(C(=O)NC3(CO)CCN(C(=O)c4ccc(-c5ccccc5)cc4)C3)c2)cn1` (stereo not shown) [Example 671, N-(1-([1,1′-biphenyl]-4-carbonyl)-3-(hydroxymethyl)pyrrolidin-3-yl)-2-amino-5-(1-methyl-1H-pyrazol-4-yl)nicotinamide] displayed an IC50 of 10 to 100 nM.

Compound `Cn1cc(-c2cnc(N)c(C(=O)N[C@@H]3CCN(C(=O)c4ccc(-c5ccccc5C=O)cc4)C3)c2)cn1` [Example 355, (R)-2-amino-N-(1-(2′-formyl-[1,1′-biphenyl]-4-carbonyl)pyrrolidin-3-yl)-5-(1-methyl-1H-pyrazol-4-yl)nicotinamide] showed an IC50 of 10 to 100 nM.

Take `Cn1cc(-c2cnc(N)c(C(=O)N[C@@H]3CCN(Cc4ccc(F)c(C5=CCNCC5)c4)C3)c2)cn1` [Example 252, (R)-2-amino-N-(1-(4-fluoro-3-(1,2,3,6-tetrahydropyridin-4-yl)benzyl)pyrrolidin-3-yl)-5-(1-methyl-1H-pyrazol-4-yl)nicotinamide]: the IC50 is greater than 1000 nM.

`Cn1cc(-c2cnc(N)c(C(=O)N[C@@H]3CCN(C(=O)c4ccc(-c5ccc(O[C@H]6CCNC6)cc5)cc4)C3)c2)cn1` [Example 541, 2-amino-5-(1-methyl-1H-pyrazol-4-yl)-N—((R)-1-(4′-(((S)-pyrrolidin-3-yl)oxy)-[1,1′-biphenyl]-4-carbonyl)pyrrolidin-3-yl)nicotinamide] came in with an IC50 of 10 to 100 nM.

`CN1CCN(c2cc(-c3cnc(N)c(C(=O)N[C@@H]4CCN(C(=O)c5ccc(-c6ccc(F)cc6Cl)cc5)C4)c3)ccn2)CC1` [Example 780, (R)-6-amino-N-(1-(2′-chloro-4′-fluoro-[1,1′-biphenyl]-4-carbonyl)pyrrolidin-3-yl)-2′-(4-methylpiperazin-1-yl) -[3,4′-bipyridine]-5-carboxamide] registered a concentration for half-maximal inhibition (IC50) of less than 10 nM.

`Cn1cc(-c2cnc3[nH]nc(N[C@@H]4CCN(C(=O)c5ccc(-c6ccccc6Cl)cc5)C4)c3c2)cn1` [Example 617, (R)-(2′-chloro-[1,1′-biphenyl]-4-yl)(3-((5-(1-methyl-1H-pyrazol-4-yl)-1H-pyrazolo[3,4-b]pyridin-3-yl)amino)pyrrolidin-1-yl)methanone] came in with a half-maximal inhibitory concentration (IC50) of 10 to 100 nM.

The compound `CC(=O)n1ccc2c(C(=O)N3CC[C@@H](NC(=O)c4cc(-c5cnn(C)c5)cnc4N)C3)cccc21` [Example 514, (R)—N-(1-(1-acetyl-1H-indole-4-carbonyl)pyrrolidin-3-yl)-2-amino-5-(1-methyl-1H-pyrazol-4-yl)nicotinamide] registered a 50% inhibitory concentration (IC50) greater than 1000 nM.

`COC(=O)[C@H]1C[C@@H](NC(=O)c2cc(-c3cnn(C)c3)cnc2N)CN1C(=O)c1ccc(-c2ccc(F)cc2Cl)cc1` [Example 689, methyl (2R,4R)-4-(2-amino-5-(1-methyl-1H-pyrazol-4-yl)nicotinamido)-1-(2′-chloro-4′-fluoro-[1,1′-biphenyl]-4-carbonyl)pyrrolidine-2-carboxylate] gave an IC50 greater than 1000 nM.

Turning to `Cn1cc(-c2cnc(N)c(C(=O)N[C@@H]3CCN(C(=O)C4Cc5ccccc5C4)C3)c2)cn1` [Example 496, (R)-2-amino-N-(1-(2,3-dihydro-1H-indene-2-carbonyl)pyrrolidin-3-yl)-5-(1-methyl-1H-pyrazol-4-yl)nicotinamide], the IC50 was greater than 1000 nM.

Take `Cn1cc(-c2cnc(N)c(C(=O)N[C@@H]3CCN(C(=O)Oc4ccc5ccc(OC6CCNCC6)cc5c4)C3)c2)cn1` [Example 294, 7-(piperidin-4-yloxy)naphthalen-2-yl (R)-3-(2-amino-5-(1-methyl-1H-pyrazol-4-yl)nicotinamido)pyrrolidine-1-carboxylate]: the concentration for half-maximal inhibition (IC50) lay within 10 to 100 nM.

`Cn1cc(-c2cnc(N)c(C(=O)N[C@@H]3CCN(C(=O)Oc4cccc(-c5cccc(CN6CCC(N)CC6)c5)c4)C3)c2)cn1` [Example 340, 3′-((4-aminopiperidin-1-yl)methyl)-[1,1′-biphenyl]-3-yl (R)-3-(2-amino-5-(1-methyl-1H-pyrazol-4-yl)nicotinamido)pyrrolidine-1-carboxylate] registered an IC50 of 100 to 1000 nM.

The compound `COc1ccsc1-c1ccc(C(=O)N2CC[C@@H](NC(=O)c3cc(-c4cnn(C)c4)cnc3N)C2)cc1` [Example 524, (R)-2-amino-N-(1-(4-(3-methoxythiophen-2-yl)benzoyl)pyrrolidin-3-yl)-5-(1-methyl-1H-pyrazol-4-yl)nicotinamide] showed a half-maximal inhibitory concentration (IC50) of 10 to 100 nM.

`Nc1ncc(-c2ccc(N3CCOCC3)cc2)cc1C(=O)N[C@@H]1CCN(C(=O)c2ccc(-c3ccccc3)cc2)C1` [Example 557, (R)—N-(1-([1,1′-biphenyl]-4-carbonyl)pyrrolidin-3-yl)-2-amino-5-(4-morpholinophenyl)nicotinamide] showed an IC50 of 10 to 100 nM.

In the case of `Cn1cc(-c2cnc(N)c(C(=O)N[C@@H]3CCN(C(=O)Oc4ccc5cc(OC6CCNCC6)ccc5c4)C3)c2)cn1` [Example 302, 6-(piperidin-4-yloxy)naphthalen-2-yl (R)-3-(2-amino-5-(1-methyl-1H-pyrazol-4-yl)nicotinamido)pyrrolidine-1-carboxylate], the IC50 was in the range of 10 to 100 nM.

For the compound `Cn1cc(-c2cnc(N)c(C(=O)N[C@@H]3CCN(C(=O)Oc4cccc(-c5ccc(CN6CCCC6)cc5)c4)C3)c2)cn1` [Example 333, 4′-(pyrrolidin-1-ylmethyl)-[1,1′-biphenyl]-3-yl (R)-3-(2-amino-5-(1-methyl-1H-pyrazol-4-yl)nicotinamido)pyrrolidine-1-carboxylate], the IC50 is 10 to 100 nM.

Take `Cn1cc(-c2cnc(N)c(C(=O)N[C@@H]3CCN(C(=O)c4ccc(OC5C=CCCC5)cc4)C3)c2)cn1` (stereo partly drawn) [Example 411, 2-amino-N-((3R)-1-(4-(cyclohex-2-en-1-yloxy)benzoyl)pyrrolidin-3-yl)-5-(1-methyl-1H-pyrazol-4-yl)nicotinamide]: the IC50 lay within 100 to 1000 nM.

`CN(C)CCOc1ccc2cc(OC(=O)N3CC[C@@H](NC(=O)c4cc(-c5cnn(C)c5)cnc4N)C3)ccc2c1` [Example 300, 6-(2-(dimethylamino)ethoxy)naphthalen-2-yl (R)-3-(2-amino-5-(1-methyl-1H-pyrazol-4-yl)nicotinamido)pyrrolidine-1-carboxylate] gave a half-maximal inhibitory concentration (IC50) of 100 to 1000 nM.

Consider `CN(C)CCOc1ccc2ccc(OC(=O)N3CC[C@@H](NC(=O)c4cc(-c5cnn(C)c5)cnc4N)C3)cc2c1` [Example 296, 7-(2-(dimethylamino)ethoxy)naphthalen-2-yl (R)-3-(2-amino-5-(1-methyl-1H-pyrazol-4-yl)nicotinamido)pyrrolidine-1-carboxylate], for which the half-inhibitory concentration (IC50) was 10 to 100 nM.

The compound `Cn1cc(-c2cnc(N)c(C(=O)N[C@@H]3CCN(C(=O)c4ccc(-c5ccc(C(F)(F)F)cc5C(F)(F)F)cc4)C3)c2)cn1` [Example 374, (R)-2-amino-N-(1-(2′,4′-bis(trifluoromethyl)-[1,1′-biphenyl]-4-carbonyl)pyrrolidin-3-yl)-5-(1-methyl-1H-pyrazol-4-yl)nicotinamide] returned a half-maximal inhibitory concentration (IC50) greater than 1000 nM.

As for `Cn1cc(-c2cnc(N)c(C(=O)NC3(CO)CCN(C(=O)c4cccc(-c5ccccc5)c4)C3)c2)cn1` (stereo not shown) [Example 672, N-(1-([1,1′-biphenyl]-3-carbonyl)-3-(hydroxymethyl)pyrrolidin-3-yl)-2-amino-5-(1-methyl-1H-pyrazol-4-yl)nicotinamide], the IC50 was greater than 1000 nM.

The compound `Cn1cc(-c2cnc(N)c(C(=O)N[C@@H]3CCN(CCc4cccc(Br)c4)C3)c2)cn1` [Example 234, (R)-2-amino-N-(1-(3-bromophenethyl)pyrrolidin-3-yl)-5-(1-methyl-1H-pyrazol-4-yl)nicotinamide] showed an IC50 of 100 to 1000 nM.

The values above are taken from US12378224B2 (Dong-A Socio Holdings Co., Ltd., priority 2016, dated 2025).
